Key:
[1] = In vitro stability in mouse plasma; assay type: in vitro ADME; settings: 37° C.; for Stability in mouse plasma: 24-hour incubation; for Stability (intact (%)): mouse plasma
Description: Blood was collected from a ddy mouse (purchased from Shimizu Laboratory Supplies Co., Ltd.), and centrifuged (1,200 g, 10 minutes) in a venous blood collection tube (manufactured by Becton, Dickinson and Company). The blood plasma (200 μL) was separated, a saline solution (185 kBq) of [^111In]ITDA1, [^111In]ITDA2, or [^111In]ITDA3 was added into the blood plasma, and the obtained mixture was incubated at 37° C. for 1, 4, 8, and for 24 hours (n=3). Further, into the incubated mixture, acetonitrile (200 μL) was added, and then the mixture was centrifuged (10,000 g, 5 minutes), the supernatant was filtered with COSMONICE Filter (S) (0.45 μm, 4 mm) (manufactured by NACALAI TESQUE, INC.), and the filtrate was analyzed by RP-HPLC under the following conditions. In this regard, the intact % in FIGS. 4A and 4B was determined from the area percentage of the RP-HPLC elution pattern.
Column: Cosmosil Cis column (5C18-PAQ, 4.6×250 mm)
Mobile phase: water/acetonitrile/trifluoroacetic acid (90: 10: 0.1 (0 min)→60: 40: 0.1 (30 min)), and flow rate for analysis: 1.0 mL/min

[2] = test system: CA-IX-positive HT-29 cells; assay: In vitro CA-IX affinity and specificity, cell binding, cells lysed at room temperature (Example 11); assay type: cell-based; settings: for Inhibition of cell binding by acetazolamide: HT-29 cells, AZ 50 μM, 21% or 1% oxygen, lysis at room temperature; for Selectivity of binding to CA-IX: HT-29 vs MDA-MB-231 cells, room temperature lysis
Description: (§1) HT-29 cells (purchased from Dainippon Sumitomo Pharma Co., Ltd.) and MDA-MB-231 cells (purchased from Dainippon Sumitomo Pharma Co., Ltd.) were incubated in a 12-well plate (2.0×10^5 cells/well) at 37° C. for 24 hours under an atmosphere of 5% carbon dioxide and 21% oxygen, and then further incubated at 37° C. for 24 hours under an atmosphere of 5% carbon dioxide and 21% or 1% oxygen. After the culture medium was removed, Dulbecco's modified Eagle's medium (DMEM, 1 mL) containing[^111In]ITDA1 (14 kBq), [^111In]ITDA2 (26 kBq), or [^111In]ITDA3 (37 kBq) was added to each well, and then the incubation was performed at 37° C. for 2 hours under an atmosphere of 5% carbon dioxide and 21% or 1% oxygen. In addition, a separate plate was incubated in a similar manner as in the above except that acetazolamide (AZ, 50 μM) was added to [^111In]ITDA1 (14 kBq), [^111In]ITDA2 (26 kBq), or [^111In]ITDA3 (37 kBq) as a competitive compound for CA-IX. After that, each well was washed with 1 mL of phosphate-buffered saline (PBS, pH 7.4) (manufactured by NACALAI TESQUE, INC.), and the cells were lysed at room temperature in an aqueous solution of 1 N sodium hydroxide ([^111In]ITDA1: 0.25 mL×2, [^111In]ITDA2: 0.5 mL×2, and [^111In]ITDA3: 0.2 mL×2). The amount of radioactivity bound to the cells was measured by a gamma counter (model name: Wallac 1470 Wizard, PerkinElmer, Massachusetts, made in U.S.A., the same applies to the following examples).
(§2) FIG. 3A is a graph showing whether or not the affinity of compound [^111In]ITDA1 for CA-IX in each of the HT-29 cells and the MDA-MB-231 cells is inhibited by the coexistence of acetazolamide (AZ). Further, FIG. 3B is a graph showing whether or not the affinity of compound [^111In]ITDA2 for CA-IX in each of the HT-29 cells and the MDA-MB-231 cells is inhibited by the coexistence of acetazolamide (AZ). Moreover, FIG. 3C is a graph showing whether or not the affinity of compound [^111In]ITDA3 for CA-IX in each of the HT-29 cells and the MDA-MB-231 cells is inhibited by the coexistence of acetazolamide (AZ).

[3] = test system: CA-IX-negative MDA-MB-231 cells; assay: as above; assay type: cell-based; settings: AZ 50 μM, 21% or 1% oxygen, lysis at room temperature
Description: as §1, §2

[4] = test system: CA-IX-positive HT-29 cells; assay: In vitro CA-IX affinity and specificity, cell binding, cells lysed at 37° C. (Example 18); assay type: cell-based; settings: for Inhibition of cell binding by acetazolamide: HT-29 cells, normoxic and hypoxic; for Inhibition of cell binding by acetazolamide / Selectivity of binding to CA-IX: lysis at 37° C.; for Selectivity of binding to CA-IX: HT-29 vs MDA-MB-231 cells
Description: as §1
(§3) Example 18 was performed similarly as in Example 11 except that the cells were lysed in a constant temperature water bath at 37° C. The accumulation of radioactivity in each cell was expressed by % initial dose/mg protein obtained by dividing the ratio of the amount of radioactivity bound to each cell to the added amount of radioactivity by the amount of cell protein.

[5] = test system: CA-IX-negative MDA-MB-231 cells; assay: as above; assay type: cell-based; settings: for Inhibition of cell binding by acetazolamide: MDA-MB-231 cells, normoxic and hypoxic, lysis at 37° C.
Description: as §1, §3

[6] = 1-octanol/PBS (pH 7.4) partition coefficient; assay type: physicochemical
Description: The 1-octanol/PBS (pH 7.4) partition coefficients of [^111In]ITDA1 and [^111In]ITDA2, which were obtained in Example 6, and [^111In]ITDA3 obtained in Example 10 were measured.
The above two phases were saturated with each other in advance, and 1-octanol (3 mL) and PBS (3 mL) were pipetted into a 15-mL test tube containing [^111In]ITDA1 (37 kBq), [^111In]ITDA2 (37 kBq), or [^111In]ITDA3 (370 kBq). The test tube was vortexed for 2 minutes and centrifuged (4,000 g, 5 minutes). 0.5 mL was taken from each of the 1-octanol phase and the PBS phase, and transferred to two test tubes, respectively for measurement. The residual PBS phase (1 mL), and newly prepared 1-octanol (3 mL) and PBS (2 mL) were pipetted into a new test tube. The amount of radioactivity in each test tube was measured by using a gamma counter. The partition coefficient was calculated by using the equation log Pow=log10[count1-octanol/countPBS]. As a result, the log Pow of [^111In]ITDA1 was −3.72±0.05, the log Pow of [^111In]ITDA2 was −2.32±0.01, and the log Pow of [^111In]ITDA3 was −3.47±0.09.

[7] = 1% Oxygen AZ(+), acetazolamide 50 μM
[8] = 21% Oxygen AZ(+), acetazolamide 50 μM

SMILES | Stability in mouse plasma [1] | Inhibition of cell binding by acetazolamide [2] | Selectivity of binding to CA-IX [2] | Inhibition of cell binding by acetazolamide [3] | Amount of binding to HT-29 cells [4, 7] | Amount of binding to HT-29 cells ([4]; 1% Oxygen AZ(−)) | Amount of binding to HT-29 cells [4, 8] | Amount of binding to HT-29 cells ([4]; 21% Oxygen AZ(−)) | Inhibition of cell binding by acetazolamide [4] | Selectivity of binding to CA-IX [4] | Amount of binding to MDA-MB-231 cells [5, 7] | Amount of binding to MDA-MB-231 cells ([5]; 1% Oxygen AZ(−)) | Amount of binding to MDA-MB-231 cells [5, 8] | Amount of binding to MDA-MB-231 cells ([5]; 21% Oxygen AZ(−)) | Inhibition of cell binding by acetazolamide [5] | log Pow [6] | also measured
NS(=O)(=O)c1nn2cc(-c3ccc(NC(=O)CN4CCN(CC(=O)O)CCN(CC(=O)O)CCN(CC(=O)O)CC4)cc3)nc2s1.[111In+3] [[^111In]ITDA1, [^111In]indium(III)2,2′,2″-(10-(2-oxo-2-((4-(2-sulfamoylimidazo[2,1-b][1,3,4]thiadiazol-6-yl)phenyl)amino)ethyl)-1,4,7,10-tetraazacyclododecan-1,4,7-triyl) triacetic acid] | sufficient stability | the inhibition was observed in the presence of acetazolamide | selectively bind to the CA-IX | the competitive inhibition was not observed | 2.2 ± 0.5 % initial dose/mg protein | 198.9 ± 5.7 % initial dose/mg protein | 0.9 ± 0.2 % initial dose/mg protein | 118.1 ± 21.4 % initial dose/mg protein | the inhibition was observed in the presence of acetazolamide | selectively bind to the CA-IX | 0.1 ± 0.0 % initial dose/mg protein | 6.5 ± 0.8 % initial dose/mg protein | 0.1 ± 0.0 % initial dose/mg protein | 1.4 ± 0.3 % initial dose/mg protein | the competitive inhibition was not observed | −3.72±0.05 | –
NS(=O)(=O)c1nn2cc(-c3ccc(NC(=O)CN4CCN(CC(=O)O)CCN(CC(=O)Nc5ccc(-c6cn7nc(S(N)(=O)=O)sc7n6)cc5)CCN(CC(=O)O)CC4)cc3)nc2s1.[111In+3] [[^111In]ITDA2, [^111In]indium(III)2,2′-(4,10-bis(2-oxo-2-((4-(2-sulfamoylimidazo[2,1-b][1,3,4]thiadiazol-6-yl)phenyl)amino)ethyl)-1,4,7,10-tetraazacyclododecan-1,7-diyl) diacetic acid] | sufficient stability | the inhibition was observed in the presence of acetazolamide | selectively bind to the CA-IX | the competitive inhibition was not observed | 12.1 ± 3.7 % initial dose/mg protein | 109.2 ± 6.7 % initial dose/mg protein | 7.6 ± 2.3 % initial dose/mg protein | 48.3 ± 5.9 % initial dose/mg protein | the inhibition was observed in the presence of acetazolamide | selectively bind to the CA-IX | 0.7 ± 0.1 % initial dose/mg protein | 2.9 ± 0.4 % initial dose/mg protein | 1.4 ± 0.2 % initial dose/mg protein | 2.5 ± 0.5 % initial dose/mg protein | the competitive inhibition was not observed | −2.32±0.01 | –
NS(=O)(=O)c1nn2cc(-c3ccc(NC(=O)CCC(C(=O)O)N4CCN(CC(=O)[O-])CCN(CC(=O)[O-])CCN(CC(=O)[O-])CC4)cc3)nc2s1.[111In+3] (stereo not shown) [[^111In]ITDA3] | – | the inhibition was observed in the presence of acetazolamide | selectively bind to the CA-IX | the competitive inhibition was not observed | 1.0 ± 0.1 % initial dose/mg protein | 93.4 ± 16.0 % initial dose/mg protein | 0.3 ± 0.0 % initial dose/mg protein | 47.2 ± 6.8 % initial dose/mg protein | the inhibition was observed in the presence of acetazolamide | selectively bind to the CA-IX | 0.1 ± 0.0 % initial dose/mg protein | 2.0 ± 1.1 % initial dose/mg protein | 0.2 ± 0.0 % initial dose/mg protein | 0.5 ± 0.1 % initial dose/mg protein | the competitive inhibition was not observed | −3.47±0.09 | Stability (intact %) in mouse plasma ([1]; incubation for 1 to 24 hours): ≥ 95%; Stability (intact (%)) ([1]; 1 h): 97.4 ± 0.8%; Stability (intact (%)) ([1]; 4 h): 99.0 ± 0.6%; Stability (intact (%)) ([1]; 8 h): 98.0 ± 0.1%; Stability (intact (%)) ([1]; 24 h): 98.8 ± 0.4%

Reference: patent US20210322582A1, “RADIOACTIVE IMIDAZOTHIADIAZOLE DERIVATIVE COMPOUND” (Nihon Medi-Physics Co., Ltd., priority 2018, published 2021)
